Experimental findings from US11179383B2 (Gilead Sciences, Inc., priority 2018, dated 2021) are described below.

The test deals with T1, α4β7 integrin (Homo sapiens, UniProt P13612+P26010).
T1 construct: monitoring the capture of α4β7 integrin expressing cells on a recombinant MadCAM-1 extracellular domain-coated plate; endogenous in cells; host or cells: RPMI8866 cells
T1 sequence (P13612 34-1032): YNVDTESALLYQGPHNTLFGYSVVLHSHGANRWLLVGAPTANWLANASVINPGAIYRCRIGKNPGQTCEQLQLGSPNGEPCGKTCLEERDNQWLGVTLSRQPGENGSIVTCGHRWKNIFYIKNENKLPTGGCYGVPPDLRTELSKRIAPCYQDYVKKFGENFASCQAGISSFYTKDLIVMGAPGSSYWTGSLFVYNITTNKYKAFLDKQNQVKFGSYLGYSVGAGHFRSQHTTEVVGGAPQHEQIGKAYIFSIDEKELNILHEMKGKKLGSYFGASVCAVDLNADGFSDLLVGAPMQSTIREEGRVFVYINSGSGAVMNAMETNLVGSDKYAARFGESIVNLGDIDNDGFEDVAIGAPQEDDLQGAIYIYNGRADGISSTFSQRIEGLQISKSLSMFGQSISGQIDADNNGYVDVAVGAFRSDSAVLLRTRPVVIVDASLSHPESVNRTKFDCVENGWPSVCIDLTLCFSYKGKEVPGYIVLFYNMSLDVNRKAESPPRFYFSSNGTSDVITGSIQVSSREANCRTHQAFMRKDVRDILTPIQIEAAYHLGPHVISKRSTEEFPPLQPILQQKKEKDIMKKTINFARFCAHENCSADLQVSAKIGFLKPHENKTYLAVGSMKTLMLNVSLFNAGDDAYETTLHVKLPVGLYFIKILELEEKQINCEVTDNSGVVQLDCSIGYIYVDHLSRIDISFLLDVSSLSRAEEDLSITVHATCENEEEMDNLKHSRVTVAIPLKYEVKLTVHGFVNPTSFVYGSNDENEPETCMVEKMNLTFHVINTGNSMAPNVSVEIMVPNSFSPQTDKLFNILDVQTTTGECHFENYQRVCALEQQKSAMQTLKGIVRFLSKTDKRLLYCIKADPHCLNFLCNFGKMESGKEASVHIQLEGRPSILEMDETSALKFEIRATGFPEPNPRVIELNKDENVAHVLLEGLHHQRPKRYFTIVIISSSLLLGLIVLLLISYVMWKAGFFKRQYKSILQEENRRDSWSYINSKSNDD
T1 sequence (P26010 20-798): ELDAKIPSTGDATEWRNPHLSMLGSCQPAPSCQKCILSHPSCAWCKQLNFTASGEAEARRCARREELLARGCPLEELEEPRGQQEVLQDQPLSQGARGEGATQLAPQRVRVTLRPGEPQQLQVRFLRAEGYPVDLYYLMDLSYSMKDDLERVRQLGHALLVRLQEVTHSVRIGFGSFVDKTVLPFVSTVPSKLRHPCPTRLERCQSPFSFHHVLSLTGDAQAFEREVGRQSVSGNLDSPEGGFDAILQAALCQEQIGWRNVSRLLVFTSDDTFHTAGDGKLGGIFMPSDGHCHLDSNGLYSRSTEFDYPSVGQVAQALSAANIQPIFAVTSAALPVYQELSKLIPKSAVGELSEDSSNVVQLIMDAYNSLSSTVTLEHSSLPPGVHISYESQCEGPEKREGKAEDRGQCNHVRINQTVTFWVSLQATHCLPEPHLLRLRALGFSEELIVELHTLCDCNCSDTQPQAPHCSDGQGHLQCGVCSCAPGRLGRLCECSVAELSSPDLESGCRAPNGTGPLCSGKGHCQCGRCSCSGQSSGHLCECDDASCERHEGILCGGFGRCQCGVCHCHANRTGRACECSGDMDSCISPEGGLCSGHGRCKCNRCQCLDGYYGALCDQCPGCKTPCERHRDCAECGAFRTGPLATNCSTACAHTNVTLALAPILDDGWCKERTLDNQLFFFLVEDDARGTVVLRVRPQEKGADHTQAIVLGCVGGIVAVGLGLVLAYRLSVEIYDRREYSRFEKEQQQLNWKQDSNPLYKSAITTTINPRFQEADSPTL
As to the kind of experiment: α4β7 Integrin Cell Capture Assay. It counts as cell-based. The conditions noted are these: capture of α4β7 integrin expressing RPMI8866 cells on recombinant MadCAM-1 extracellular domain-coated plate; DMEM+0.5% FBS+0.5 mM MnCl2; read-out: EC50 α4β7. Here is the method: α4β7 Integrin Cell Capture Assay
The potency of inhibitors in preventing α4β7 integrin interaction with MadCAM-1 was measured by monitoring the capture of α4β7 integrin expressing cells on a recombinant MadCAM-1 extracellular domain-coated plate.
384-Well plates (Corning 3702) were coated with MadCAM-1 extracellular domain by dispensing 20 μL of MAdCAM-1 at 1.0 μg/mL per well and incubating overnight at 4° C. The plates were then washed with PBS and blocked with 3% BSA for 2 hours before being washed again.
RPMI8866 cells were spun down and re-suspended in assay medium (DMEM+0.5% FBS+0.5 mM MnCl2) at a density of 0.5×10^6 cells/mL. The cells were then dispensed (60 μL/well) to a 384-well plate (Greiner 781280) that was previously spotted with 60 nL of test compound per well. The plates were incubated at 37° C. for 1 hour. 50 μL of cells were transferred to the blocked, MadCAM-1-coated plates and incubated for 30 minutes at 37° C. 10 μL of 12% glutaraldehyde containing Hoechst 33342 (0.06 mg/mL) was added to the cells (2% glutaraldehyde and 0.01 mg/mL final concentrations). The plates were incubated for 90 minutes at room temperature. The plates were then washed 3 times with 70 μL of PBS per well and imaged on a Cellomics ArrayScan instrument. The cells that were bound to the plate were counted and plotted against the compound concentration to determine the EC50 of the test compounds.

In the case of `Cc1c(-c2ccc(C[C@H](NC(=O)c3c(F)cc(N4CCOC[C@@H]4C(F)(F)F)cc3F)C(=O)O)c3ncccc23)c(=O)n(C)c2ccc(F)cc12` (single isomer, unassigned) [Example 87], the EC50 (as a rule, the concentration that produces a half-maximal response) was determined as 2.9 nM.
Regarding `Cc1c(-c2ccc(C[C@H](NC(=O)c3c(F)cc(N4CCOC[C@@H]4C(F)(F)F)cc3F)C(=O)O)c3ncccc23)c(=O)n(C)c2ccc(F)cc12` (single isomer, unassigned) [Example 88], the EC50 stood at 0.1 nM.
As for `COc1cc(F)c(F)cc1-c1ccc(C[C@H](NC(=O)c2c(Cl)cccc2Cl)C(=O)O)c2nccc(Cl)c12` (single isomer, unassigned) [Example 95], the figure is 15.2 nM; as for `COc1cc(F)c(F)cc1-c1ccc(C[C@H](NC(=O)c2c(Cl)cccc2Cl)C(=O)O)c2nccc(Cl)c12` (single isomer, unassigned) [Example 96], 572 nM; as for `COc1cc(F)c(F)cc1-c1ccc(C[C@H](NC(=O)c2c(Cl)cccc2Cl)C(=O)O)c2nccc(C)c12` (single isomer, unassigned) [Example 98], 469 nM.
The value for `COc1cc(F)c(F)cc1-c1ccc(C[C@H](NC(=O)c2c(Cl)cccc2Cl)C(=O)O)c2nccc(C)c12` (single isomer, unassigned) [Example 99] was 50.4 nM; that for `Cc1c(-c2ccc(C[C@H](NC(=O)c3c(Cl)cccc3Cl)C(=O)O)c3ccccc23)c(=O)n(C)c(=O)n1C` (single isomer, unassigned) [Example 109] was 2.1 nM.
As for `Cc1c(-c2ccc(C[C@H](NC(=O)c3c(Cl)cccc3Cl)C(=O)O)c3ccccc23)c(=O)n(C)c(=O)n1C` (single isomer, unassigned) [Example 110], the figure is 14.2 nM.
For `Cc1c(-c2ccc(C[C@H](NC(=O)c3c(Cl)cccc3Cl)C(=O)O)c3ccccc23)c(=O)n(C)c2ccccc12` (single isomer, unassigned) [Example 117], the EC50 was 82 nM.
As for `Cc1c(-c2ccc(C[C@H](NC(=O)c3c(Cl)cccc3Cl)C(=O)O)c3ccccc23)c(=O)n(C)c2ccccc12` (single isomer, unassigned) [Example 118], the figure is 2.5 nM.
Consider `Cc1c(-c2ccc(C[C@H](NC(=O)c3c(F)cccc3F)C(=O)O)c3ccccc23)c(=O)n(C)c2ccccc12` (single isomer, unassigned) [Example 119], for which the EC50 was 82.9 nM.
The value for `Cc1c(-c2ccc(C[C@H](NC(=O)c3c(F)cccc3F)C(=O)O)c3ccccc23)c(=O)n(C)c2ccccc12` (single isomer, unassigned) [Example 120] was 1.5 nM; that for `COc1cc(C)n(C)c(=O)c1-c1ccc(C[C@H](NC(=O)c2c(F)cc(N3CCOC[C@@H]3C(F)(F)F)cc2F)C(=O)O)c2ccccc12` (single isomer, unassigned) [Example 124] was 0.2 nM; that for `COc1cc(C)n(C)c(=O)c1-c1ccc(C[C@H](NC(=O)c2c(F)cc(N3CCOC[C@@H]3C(F)(F)F)cc2F)C(=O)O)c2ccccc12` (single isomer, unassigned) [Example 125] was 0.5 nM.
As for `Cc1cc(C)n(C)c(=O)c1-c1ccc(C[C@H](NC(=O)c2c(F)cc(N3CCOC[C@@H]3C(F)(F)F)cc2F)C(=O)O)c2ccccc12` (single isomer, unassigned) [Example 126], the figure is 6.4 nM; as for `Cc1cc(C)n(C)c(=O)c1-c1ccc(C[C@H](NC(=O)c2c(F)cc(N3CCOC[C@@H]3C(F)(F)F)cc2F)C(=O)O)c2ccccc12` (single isomer, unassigned) [Example 127], 0.4 nM.
As for `Cc1cc(C(F)(F)F)c(-c2ccc(C[C@H](NC(=O)c3c(F)cc(N4CCOC[C@@H]4C(F)(F)F)cc3F)C(=O)O)c3ccccc23)c(=O)n1C` (single isomer, unassigned) [Example 128], the figure is 1.7 nM.
Regarding `Cc1cc(C(F)(F)F)c(-c2ccc(C[C@H](NC(=O)c3c(F)cc(N4CCOC[C@@H]4C(F)(F)F)cc3F)C(=O)O)c3ccccc23)c(=O)n1C` (single isomer, unassigned) [Example 129], the EC50 is 0.1 nM.
On to `CC[C@@H](Nc1cc(F)c(C(=O)N[C@@H](Cc2ccc(-c3c(OC)cc(C)n(C)c3=O)c3ccccc23)C(=O)O)c(F)c1)C(F)(F)F` (single isomer, unassigned) [Example 130], for which the EC50 is 0.6 nM.
As for `CC[C@@H](Nc1cc(F)c(C(=O)N[C@@H](Cc2ccc(-c3c(OC)cc(C)n(C)c3=O)c3ccccc23)C(=O)O)c(F)c1)C(F)(F)F` (single isomer, unassigned) [Example 131], the figure is 0.5 nM; as for `CC[C@@H](Nc1cc(F)c(C(=O)N[C@@H](Cc2ccc(-c3c(C)cc(C)n(C)c3=O)c3ccccc23)C(=O)O)c(F)c1)C(F)(F)F` (single isomer, unassigned) [Example 132], 13.7 nM; as for `CC[C@@H](Nc1cc(F)c(C(=O)N[C@@H](Cc2ccc(-c3c(C)cc(C)n(C)c3=O)c3ccccc23)C(=O)O)c(F)c1)C(F)(F)F` (single isomer, unassigned) [Example 133], 0.5 nM.
The value for `CC[C@@H](Nc1cc(F)c(C(=O)N[C@@H](Cc2ccc(-c3c(C(F)(F)F)cc(C)n(C)c3=O)c3ccccc23)C(=O)O)c(F)c1)C(F)(F)F` (single isomer, unassigned) [Example 134] was 8.3 nM.
The value for `CC[C@@H](Nc1cc(F)c(C(=O)N[C@@H](Cc2ccc(-c3c(C(F)(F)F)cc(C)n(C)c3=O)c3ccccc23)C(=O)O)c(F)c1)C(F)(F)F` (single isomer, unassigned) [Example 135] was 1 nM; that for `CC[C@@H](Nc1cc(F)c(C(=O)N[C@@H](Cc2ccc(-c3c(OC)cnn(C)c3=O)c3ccccc23)C(=O)O)c(F)c1)C(F)(F)F` (single isomer, unassigned) [Example 136] was 0.8 nM.
`CC[C@@H](Nc1cc(F)c(C(=O)N[C@@H](Cc2ccc(-c3c(OC)cnn(C)c3=O)c3ccccc23)C(=O)O)c(F)c1)C(F)(F)F` (single isomer, unassigned) [Example 137]: the EC50 came out at 0.9 nM.
The value for `CCOCc1cc(OC)c(-c2ccc(C[C@@H](NC(=O)c3c(F)cc(NS(=O)(=O)c4ccc(-c5ccnc(F)c5)cc4)cc3F)C(=O)O)c3c2cnn3C)c(OC)c1` (single isomer, unassigned) [Example 145] was 34.9 nM.
